Measurements from patent publication US20190091168A1, “FORMULATION FOR ENHANCED TRANSDERMAL ABSORPTION OF DRUG” (UNIST(ULSAN NATIONAL INSTITUTE OF SCIENCE AND TECHNOLOGY), priority 2017, published 2019).

Legend:
Assay type in all cases: in vivo
[1] = tested on: SOX-2; experiment: SOX-2 expression in skin tissue after oral administration (fluorescence imaging); conditions: 100 μg/Kg/0.1 ml twice a week, 2 months, APP/PS/Tau mouse
Protocol: (§1) Accordingly, the present inventors examined whether expressions of hair growth stimulating factors, SOX-2 and SOX-9 were increased in hair loss animal models by the benzene diamine derivatives of the present disclosure. In order to examine SOX-2 and SOX-9 expressions inside skin tissues, APP/PS/Tau mouse which is a hair loss-induced mouse model was selected as a control group and C57BL6 mouse was selected as a normal group, as in Example 5. An experimental group was prepared by orally administering the control group with the benzene diamine derivative at a concentration of 100 μg/Kg/0.1 ml using a zonde twice a week. 2 months later, incision of the skin was performed under local anesthesia, and the skin tissues were fixed in 4% paraformaldehyde solution for 24 hours, and fixed in a plastic mold with O.C.T. Compound (SAKURA, USA) for cryostat sectioning. […] Thereafter, the plate was put on a slide glass and covered with a cover slide, and stored in a dark acrylic box, and fluorescence imaging was observed under a confocal microscope (LSM710, Carl Zeiss, Germany) by 405/488/565 nm laser. […]

[2] = tested on: monomer/oligomer Aβ; experiment: Monomer/oligomer Aβ expression in skin tissue after oral administration (fluorescence imaging); conditions: 100 μg/Kg/0.1 ml twice a week, 2 months, APP/PS/Tau mouse
[3] = tested on: hair loss mouse model APP/PS/Tau; experiment: Hair loss mouse model, oral administration, changes in appearance; conditions: 100 μg/Kg twice a week for 2 months
From the text: (§2) APP/PS/Tau was purchased as a dementia mouse model from Jackson lab (BAR HARBOR, USA), and APP/Tau female and APP/PSen1de9 purchased from Taconic (Hudson, USA) were cross-mated for 6 generations, and 4-month-old mouse models were obtained from F1.
In order to examine therapeutic effects of the benzene diamine derivative of the present disclosure on hair loss, the benzene diamine derivative was orally administered to hair loss-induced mouse models, and changes in appearance were examined. The animal model of Experimental Example 2-1 was characterized by appearance of hair loss as well as dementia symptoms. Therefore, the animal model of Experimental Example 2-1 was used as a hair loss mouse model.
The hair loss mouse models were divided into groups of 6 mice, and among the hair loss mouse models, the control group were orally administered with a phosphate buffer vehicle (PBS) for 2 months, and the experimental group was orally administered with 100 μl of N1-(pyridin-2-ylmethyl)benzene-1,4-diamine (Compound 2) at a concentration of 100 μg/Kg twice a week for 2 months. Thereafter, changes in their appearance were compared.

[4] = tested on: dementia mouse model APP/PS/Tau; experiment: Morris water maze test in dementia mouse model; conditions: for mean escape latency: 100 μg/kg twice a week for 2 months
From the text: as §2
In order to examine therapeutic effects of the benzene diamine derivative of the present disclosure on dementia, enhancement of spatial cognition and memory in dementia mouse models were investigated. For this investigation, a Morris water maze (Harvard Apparatus, USA) test was performed.
In detail, a water maze composed of a stainless steel pool with a diameter of 150 cm×a height of 60 cm and an escape platform (10 cm in diameter, 30 cm in height) was filled with water at […], and the height was 2 cm above the platform such that when a mouse sat on the escape platform, the body was allowed to come out of the water. […] Escape latency was measured as the time taken for the experimental animal to go to the escape platform when the experimental animal went to the escape platform and stayed thereon for more than 20 seconds. This test was performed three times a day, and a mean value was determined as mean escape latency. The escape latency was recorded on the computer program (Smart Video Tracking System V3.0, PanLab SL, Barcelona, Spain) by installing a camera on the ceiling above the water tank. The experiment was performed three times a day for 6 days, and at this time, the possibility of accidentally visiting the escape platform was minimized by sequentially changing the positions of the experimental animals in the water tank. In the experiment, a normal mouse, a control dementia mouse administered with a vehicle (PBS) and an experimental dementia mouse administered with 100 μg/kg of N^1-(pyridin-2-ylmethyl)benzene-1,4-diamine (Compound 2) twice a week for 2 months were used after completing administration.

[5] = tested on: SOX-9; experiment: SOX-9 expression in skin tissue after oral administration (fluorescence imaging); conditions: 100 μg/Kg/0.1 ml twice a week, 2 months, APP/PS/Tau mouse
Protocol: as §1

N^1-(pyridin-2-ylmethyl)benzene-1,4-diamine [Compound 2]
SOX-2 expression in skin [1]: remarkably expressed close to the normal group | monomer/oligomer Aβ expression in skin [2]: decreased | changes in appearance (hair loss) [3]: remarkable improvement in hair loss | mean escape latency ([4]; at 3 days, compared with dementia control group): significantly short mean escape latency | difference of mean escape latency, control group vs experimental group ([4]; at 4 days): 16 s | mean escape latency ([4]; at 4 days): 26 ± 1 s | difference of mean escape latency, dementia group vs treated group ([4]; at 5 days): 19 s | mean escape latency ([4]; at 5 days): 24 ± 1 s | SOX-9 expression in skin [5]: remarkably increased
